Laboratory results: patent publication US10744135B2, “Use of an active substance in the treatment of melasma” (priority 2016, dated 2020)

Test system: lesions of telangiectatic melasma
Source text: As is known, the increase in pigmentation occurs to a greater extent during the day, wherein the action of the light is an important causal factor.

Brc1c(NC2=NCCN2)ccc2nccnc12 [brimonidine]
duration of effects in minimising the deterioration brought about by sunlight (applied in the morning): up to 9 hours
improvement of the lesions of telangiectatic melasma (topical, following a period of 30 to 60 minutes from application): immediate and obvious improvement
improvement in the hyperpigmentation of the skin of the melasma lesions (topical, minutes following application, patient (FIGS. 1-4)): effective improvement in the hyperpigmentation
